Laboratory results from ChEMBL document CHEMBL6153025, “Multidrug-resistant bacteria quorum-sensing inhibitors: A particular focus on Pseudomonasaeruginosa” (Eur J Med Chem, 2025).

Tested on: Bacillus subtilis
Test: Antibacterial activity against Bacillus subtilis
Assay type: functional
Conditions: not given

SMILES | MIC
O=C(CCCCCOc1cccc(F)c1)NN1C(=O)CN(c2ccccc2O)C1=O | > 512 µg/mL
O=C(CCCCCOc1ccc(Cl)cc1)NN1C(=O)CN(c2ccccc2O)C1=O | > 512 µg/mL
CCCCCCCCCCCC(=O)NN1C(=O)CN(c2ccccc2O)C1=O | > 512 µg/mL

Tested on: Bacillus pumilus
Test: Antibacterial activity against Bacillus pumilus
Assay type: functional
Conditions: not given

SMILES | MIC
O=C(CCCCCOc1cccc(F)c1)NN1C(=O)CN(c2ccccc2O)C1=O | > 512 µg/mL
O=C(CCCCCOc1ccc(Cl)cc1)NN1C(=O)CN(c2ccccc2O)C1=O | > 512 µg/mL
CCCCCCCCCCCC(=O)NN1C(=O)CN(c2ccccc2O)C1=O | > 512 µg/mL

Tested on: Staphylococcus aureus
Test: Antibacterial activity against Methicillin-sensitive Staphylococcus aureus
Assay type: functional
Conditions: not given

SMILES | MIC
O=C(CCCCCOc1cccc(F)c1)NN1C(=O)CN(c2ccccc2O)C1=O | > 512 µg/mL
O=C(CCCCCOc1ccc(Cl)cc1)NN1C(=O)CN(c2ccccc2O)C1=O | > 512 µg/mL
CCCCCCCCCCCC(=O)NN1C(=O)CN(c2ccccc2O)C1=O | > 512 µg/mL

Tested on: Escherichia coli
Test: Antibacterial activity against Escherichia coli
Assay type: functional
Conditions: not given

SMILES | MIC
O=C(CCCCCOc1cccc(F)c1)NN1C(=O)CN(c2ccccc2O)C1=O | > 512 µg/mL
O=C(CCCCCOc1ccc(Cl)cc1)NN1C(=O)CN(c2ccccc2O)C1=O | > 512 µg/mL
CCCCCCCCCCCC(=O)NN1C(=O)CN(c2ccccc2O)C1=O | > 512 µg/mL

Tested on: Pseudomonas aeruginosa
Test: Antibacterial activity against Pseudomonas aeruginosa
Assay type: functional
Conditions: not given

SMILES | MIC
O=C(CCCCCOc1cccc(F)c1)NN1C(=O)CN(c2ccccc2O)C1=O | > 512 µg/mL
O=C(CCCCCOc1ccc(Cl)cc1)NN1C(=O)CN(c2ccccc2O)C1=O | > 512 µg/mL
CCCCCCCCCCCC(=O)NN1C(=O)CN(c2ccccc2O)C1=O | > 512 µg/mL

Tested on: Pseudomonas aeruginosa
Test: Anti-virulence effect in Pseudomonas aeruginosa PAO1 assessed as inhibition of rhamnolipid production at 10 uM relative to control
Assay type: functional
Parameters: scale not given: the % may be the effect or the level left
Conditions: not given

SMILES | Activity
Cc1ccc(OCCCCCC(=O)NNC(=O)Cn2c(=O)oc3ccccc32)cc1 | 2.53%
CCCCCCCCC(=O)NNC(=O)Cn1c(=O)oc2ccccc21 | 6.34%
O=C(CCCCCOc1ccc(C(F)(F)F)cc1)NNC(=O)Cn1c(=O)oc2ccccc21 | 2.53%
O=C(CCCCCOc1ccc(F)cc1)NNC(=O)Cn1c(=O)oc2ccccc21 | 2.53%
O=C(CCCCCOc1cccc(C(F)(F)F)c1)NNC(=O)Cn1c(=O)oc2ccccc21 | 2.53%
O=C(CCCCCOc1cccc(F)c1)NN1C(=O)CN(c2ccccc2O)C1=O | 2.76%
O=C(CCCCCOc1ccc(Cl)cc1)NN1C(=O)CN(c2ccccc2O)C1=O | 2.76%

Tested on: not listed separately
Test: Inhibition of quorum sensing system in Pseudomonas aeruginosa PAO1 expressing lasB-gfp
Conditions: not given

IC50 | SMILES
800 nM | O=c1c2cc(Br)ccc2ncn1CC(O)COc1ccccc1 (stereo unspecified)
600 nM | O=c1c2cc(Cl)c(Cl)cc2ncn1CC(O)COc1ccccc1 (stereo unspecified)
600 nM | O=c1c2cc(Cl)cc(Cl)c2ncn1CC(O)COc1ccccc1 (stereo unspecified)
600 nM | O=c1c2ccc(Cl)cc2ncn1CC(O)COc1ccccc1 (stereo unspecified)
600 nM | O=c1c2cc(C(F)(F)F)ccc2ncn1CC(O)COc1ccccc1 (stereo unspecified)
600 nM | O=c1c2cc([N+](=O)[O-])ccc2ncn1CC(O)COc1ccccc1 (stereo unspecified)
600 nM | O=c1c2c(Cl)cccc2ncn1CC(O)COc1ccccc1 (stereo unspecified)
3200 nM | N#CCc1ccc(OCC(O)Cn2cnc3ccc(Cl)cc3c2=O)cc1 (stereo unspecified)
600 nM | O=c1c2cccc(Cl)c2ncn1CC(O)COc1ccccc1 (stereo unspecified)
3200 nM | N#CCc1ccc(NCC(O)Cn2cnc3ccc(Cl)cc3c2=O)cc1 (stereo unspecified)

Tested on: Pseudomonas aeruginosa
Test: Anti-virulence activity against Pseudomonas aeruginosa PAO1-L assessed as reduction in pyocyanin production at 10 uM incubated for 24 hrs by absorbance based analysis relative to control
Assay type: functional
Parameters: scale not given: the % may be the effect or the level left
Conditions: not given

SMILES | Activity
CCCCSSc1nc2ccc(Cl)cc2c(=O)n1-c1ccccc1 | 94%
CCCCCCSSc1nc2cccc(Cl)c2c(=O)n1-c1ccccc1 | 94%
C=CCSSc1nc2ccc(Cl)cc2c(=O)n1-c1ccccc1 | 94%
CCCCSSc1nc2cccc(Cl)c2c(=O)n1-c1ccccc1 | 94%
CCCCCCSSc1nc2ccccc2c(=O)[nH]1 | 94%
CCCCCCSSc1nc2ccc(Cl)cc2c(=O)n1-c1ccccc1 | 94%
CCCCCCCCCc1nc2cc(Cl)ccc2c(=O)n1N | 46%
CCCCCCCCSSc1nc2cccc(Cl)c2c(=O)n1-c1ccccc1 | 94%
CCCCCCCCSSc1nc2ccccc2c(=O)n1C1CC1 | 94%
C=CCSSc1nc2ccccc2s1 | 46%
C=CCSSc1nc2ccccc2c(=O)n1-c1ccccc1 | 94%
CCCCSSc1nc2ccccc2c(=O)n1C1CC1 | 94%
CCCCSSc1nc2ccccc2c(=O)n1-c1ccccc1 | 94%
CCCCCCC1=NC(Cn2cnc3cc(Cl)ccc3c2=O)CS1 (stereo unspecified) | 46%
CCCCCCSSc1nc2ccccc2c(=O)n1C1CC1 | 94%
CCCCSSc1nc2ccccc2c(=O)[nH]1 | 94%
CCCCCCSSc1nc2ccccc2c(=O)n1-c1ccccc1 | 94%
CCCCCCCCSSc1nc2ccccc2c(=O)n1-c1ccccc1 | 94%
CCCCCCCCSSc1nc2ccc(Cl)cc2c(=O)n1-c1ccccc1 | 94%

Tested on: Pseudomonas aeruginosa
Test: Antibiofilm activity against Pseudomonas aeruginosa PAO1 assessed as inhibition of biofilm formation at 32 ug/ml incubated for 8 hrs by crystal violet staining based assay relative to control
Assay type: functional
Parameters: scale not given: the % may be the effect or the level left
Conditions: dose 32 µg/ml

SMILES | Activity
Clc1ccc(SSc2nc3ccccc3s2)cc1 | 40.6%
[O-][S+](Cc1ccc(F)cc1)c1nnc(-c2ccccc2)o1 (stereo unspecified) | 23.17%
[O-][S+](Cc1ccccc1Cl)c1nnc(-c2ccccc2)o1 (stereo unspecified) | 40.6%
COc1ccc(C[S+]([O-])c2nnc(-c3ccccc3)o2)cc1 (stereo unspecified) | 21.94%
[O-][S+](Cc1ccc(Br)cc1)c1nnc(-c2ccccc2)o1 (stereo unspecified) | 21.94%
[O-][S+](Cc1cccc(Cl)c1)c1nnc(-c2ccccc2)o1 (stereo unspecified) | 40.6%
O=[N+]([O-])c1ccc(C[S+]([O-])c2nnn(-c3ccccc3)n2)cc1 (stereo unspecified) | 1.64%
COc1cccc(C[S+]([O-])c2nnn(-c3ccccc3)n2)c1 (stereo unspecified) | 1.64%
[O-][S+](Cc1ccc2c(O)cccc2c1)c1nnc(-c2ccccc2)o1 (stereo unspecified) | 40.88%
[O-][S+](Cc1cccc(Cl)c1)c1nnn(-c2ccccc2)n1 (stereo unspecified) | 1.64%
[O-][S+](Cc1ccc(C(F)(F)F)cc1)c1nnn(-c2ccccc2)n1 (stereo unspecified) | 1.64%
[O-][S+](Cc1ccccc1)c1nnn(-c2ccccc2)n1 (stereo unspecified) | 1.64%
[O-][S+](Cc1ccc(Cl)cc1)c1nnn(-c2ccccc2)n1 (stereo unspecified) | 1.64%
Cc1ccc(C[S+]([O-])c2nnc(-c3ccccc3)o2)cc1 (stereo unspecified) | 40.6%
Cc1ccc(C[S+]([O-])c2nnn(-c3ccccc3)n2)cc1 (stereo unspecified) | 1.64%
[O-][S+](Cc1ccc(Br)cc1)c1nnn(-c2ccccc2)n1 (stereo unspecified) | 1.64%
COc1cccc(C[S+]([O-])c2nnc(-c3ccccc3)o2)c1 (stereo unspecified) | 21.94%
[O-][S+](Cc1ccccc1)c1nnc(-c2ccccc2)o1 (stereo unspecified) | 40.6%
[O-][S+](Cc1ccc(F)cc1)c1nnn(-c2ccccc2)n1 (stereo unspecified) | 1.64%
[O-][S+](Cc1ccc2c(O)cccc2c1)c1nnn(-c2ccccc2)n1 (stereo unspecified) | 1.64%
COc1cc(C[S+]([O-])c2nnc(-c3ccccc3)o2)cc(OC)c1 (stereo unspecified) | 21.94%
[O-][S+](Cc1ccccc1Cl)c1nnn(-c2ccccc2)n1 (stereo unspecified) | 1.64%
O=[N+]([O-])c1ccc(C[S+]([O-])c2nnc(-c3ccccc3)o2)cc1 (stereo unspecified) | 40.6%
[O-][S+](Cc1ccc(Cl)cc1)c1nc2ccccc2s1 (stereo unspecified) | 40.6%
[O-][S+](Cc1ccc(C(F)(F)F)cc1)c1nnc(-c2ccccc2)o1 (stereo unspecified) | 21.94%

Tested on: Pseudomonas aeruginosa
Test: Antibacterial activity against Pseudomonas aeruginosa ATCC 15442 assessed as reduction in bacterial cell growth incubated for 24 hrs by two fold serial microdilution method
Assay type: functional
Conditions: not given

MIC | SMILES
> 2 µM | Clc1ccc2c(NCCCCCCCCNCCc3ccccc3)ccnc2c1
> 2 µM | NCCCCCCCCCCCCNc1ccnc2cc(Cl)ccc12
> 2 µM | Clc1ccc2c(NCCCCCCCCNCc3ccccc3Cl)ccnc2c1
> 2 µM | Clc1ccc2c(NCCCCCCNCc3ccccc3)ccnc2c1
> 2 µM | Fc1cccc(CNCCCCCCCCNc2ccnc3cc(Cl)ccc23)c1
> 2 µM | [N-]=[N+]=Nc1ccc(CNCCCCCCCCNc2ccnc3cc(Cl)ccc23)cc1
> 2 µM | Fc1ccc(CNCCCCCCCCNc2ccnc3cc(Cl)ccc23)cc1
> 2 µM | CC(C)NCCCCCCCCNc1ccnc2cc(Cl)ccc12
> 2 µM | NCCCCCCCCCCCCNc1ccnc2cc(C(F)(F)F)ccc12
> 2 µM | Clc1ccc2c(NCCCCCCCCCCCCNCc3ccccc3)ccnc2c1
> 2 µM | CN(C)CCCCCCCCNc1ccnc2cc(Cl)ccc12
> 2 µM | Clc1ccc2c(NCCCCCCNCCc3ccccc3)ccnc2c1
> 2 µM | Clc1cccc(CNCCCCCCCCNc2ccnc3cc(Cl)ccc23)c1
> 2 µM | Clc1ccc2c(NCCCCCCCCNCc3ccccc3)ccnc2c1
> 2 µM | Clc1ccc(CNCCCCCCCCNc2ccnc3cc(Cl)ccc23)cc1
